Experiments:
peritoneum = settings: rats, chronic peritoneal dialysis; cited from earlier work
[1] = test system: human peritoneal mesothelial cells and fibroblasts; settings: cited from earlier work
cultured cells = assay: in vitro inhibition of cell growth (ICG) in cultured cells; assay type: cell-based
Source text: Experiments in which measurements of the percentage of inhibition of cell growth (ICG) and fluorescence have been made at varying pH values and NAG concentrations during terminal heat sterilisation are illustrated in FIGS. 1-3. The results of the experiments imply that the pH of the amino sugar containing solution should be decreased from the neutral level and that, in a preferred embodiment of the invention, also the concentration of the amino sugar/sugars should be optimised.
(§1) A simple, reliable and known way to study the cytotoxicity of substances or of medical fluids is to test proliferation as in vitro inhibition of cell growth (ICG) in cultured cells. Another method to get a rough estimation of the amount of amino sugars that is rearranged is measurement of the fluorescence.

[2] = degradation during heat sterilisation (pH change, HPLC of 3-DG and 3,4-DGE); assay type: physicochemical
Source text: NAG and other amino sugars have a major difference from glucose and glucose-like compounds by having one amino group and possibly an acetyl group coupled to the glucose ring. […] It should be noted that the decomposition pattern for an amino sugar solution during heat sterilisation follows specific Maillard reactions giving several different toxic decomposition products. The decomposition pattern differs for e.g. a glucose solution during heat sterilisation, wherein different decomposition products are formed. This difference is illustrated in FIGS. 4a-4d, showing chromatograms when analysing 3-DG and 3,4-DGE in a NAG solution and in a glucose solution, respectively. The difference in degradation is likely due to that the NAG molecules contains groups that allows the Maillard reaction to take place and therefore create a large number of degradation products not seen in a glucose solution.

[3] = fluorescence of heat sterilised NAG containing solutions; assay type: physicochemical; settings: terminally heat sterilised solution, excitation 350 nm, emission 430 nm, FIG. 3
Source text: as §1

Row | Molecule | effect on the peritoneum of a supplemented dialysis solution (peritoneum) | production of hyaluronan and sulphated glycosaminoglycans [1] | percentage inhibition of cell growth, effect of NAG concentration (cultured cells; NAG 30% vs 1.5% during terminal heat sterilisation, all three pH values, FIG. 2) | cytotoxicity after heat sterilisation (cultured cells; conventional medical solutions) | pH of sterilisation at which inhibition of cell growth reaches a minimum (cultured cells; solution containing 1.5% NAG, FIG. 1) | percentage inhibition of cell growth, effect of pH (cultured cells; terminal heat sterilisation at pH 3.0, 5.5 and 7.2, FIG. 2) | change of pH of the solution during sterilisation [2] | known glucose degradation products in heat sterilised solution ([2]; heat sterilised NAG solutions) | pH at which the lowest fluorescence is seen [3]
1 | hyaluronan [reference compound] | function of the peritoneum as a dialysis membrane is better preserved | – | – | – | – | – | – | – | –
2 | CC(=O)N[C@H]1C(O)O[C@H](CO)[C@@H](O)[C@@H]1O (stereo partly shown) [NAG, N-acetylglucosamine] | causes accumulation of glucosaminoglycans in the peritoneal interstitium, resulting in a favorable change of the peritoneal permeability | rapidly stimulates the production of hyaluronan and sulphated glycosaminoglycans | lower after a terminal heat sterilisation at a NAG concentration of 30% than at a NAG concentration of 1.5% | increased cytotoxicity after heat sterilisation | 2.5-3.5 | lower after terminal heat sterilisation at a pH of 3.0 than at a pH of 5.5 and 7.2 | increases during sterilisation | none of the known glucose degradation products has been found | ~4

Reference: US9918999B2, “Method for preparing a medical solution for the manufacture of a medicament for peritoneal dialysis” (FRESENIUS MEDICAL CARE DEUTSCHLAND GMBH, priority 2002, dated 2018)
